{
  "source": "paper PMC5385491",
  "about": "“Antiviral activity of chlorogenic acid against influenza A (H1N1/H3N2) virus and its inhibition of neuraminidase” (Scientific Reports, 2017)",
  "biological_target": "T1, NA of influenza A/PuertoRico/8/1934 (H1N1) virus (Influenza A virus (A/Puerto Rico/8/1934(H1N1)), UniProt P03468)",
  "T1 construct": "native viral NA in allantoic fluid of infected embryonated chicken eggs (whole virus, not purified)",
  "T1 sequence (P03468 whole entry)": "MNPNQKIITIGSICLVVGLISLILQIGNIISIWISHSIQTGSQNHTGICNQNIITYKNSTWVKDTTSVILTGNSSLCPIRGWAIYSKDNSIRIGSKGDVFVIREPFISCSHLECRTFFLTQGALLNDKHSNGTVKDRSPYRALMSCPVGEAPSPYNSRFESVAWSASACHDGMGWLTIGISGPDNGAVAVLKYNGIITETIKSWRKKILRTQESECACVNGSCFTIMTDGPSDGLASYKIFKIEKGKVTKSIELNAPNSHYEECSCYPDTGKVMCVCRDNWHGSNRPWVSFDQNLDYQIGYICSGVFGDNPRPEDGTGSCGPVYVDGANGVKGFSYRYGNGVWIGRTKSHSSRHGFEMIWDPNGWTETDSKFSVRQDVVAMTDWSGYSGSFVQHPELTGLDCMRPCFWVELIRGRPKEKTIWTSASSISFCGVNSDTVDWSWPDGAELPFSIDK",
  "assay": "fluorescence NA inhibition assay with MU-NANA",
  "type": "biochemical",
  "conditions": "MU-NANA substrate (30 μl of 80 μM in 100 μl); 10 min preincubation, 30 min reaction, 37 °C; virus-containing allantoic fluid",
  "data": [
    {"compound": "O=C(/C=C/c1ccc(O)c(O)c1)O[C@@H]1C[C@](O)(C(=O)O)C[C@@H](O)[C@H]1O", "note": "[CHA, chlorogenic acid]", "values": [
      {"measurement": "IC50", "value": "22.1 ± 1.07", "unit": "µM"}
    ]}
  ]
}
